Test results taken from patent US10030047B2 (Hoffmann-La Roche Inc., priority 2015, dated 2018).

These compounds were tested on A. baumannii strain ATCC17978 (assay: 50% growth inhibitory concentration (IC50) determination, Iso-Sensitest broth). Conditions: Acinetobacter baumannii, ATCC17978, 16 h, read-out: IC50 ATCC17978.
Format: cell-based
Method: The in vitro antimicrobial activity of the compounds was alternatively determined according to the following procedure:
The assay used a 10-points Iso-Sensitest broth medium to measure quantitatively the in vitro activity of the compounds against A. baumannii ATCC 17978.
Stock compounds in DMSO were serially twofold diluted (e.g. range from 50 to 0.097 μM final concentration) in 384 wells microtiter plates and inoculated with 49 μl the bacterial suspension in Iso-Sensitest medium to have a final cell concentration of ˜5×10^(5) CFU/ml in a final volume/well of 50 ul/well. Microtiter plates were incubated at 35±2° C.
Bacterial cell growth was determined with the measurement of optical density at λ=600 nm each 20 minutes over a time course of 16 h.
Growth inhibition was calculated during the logarithmic growth of the bacterial cells with determination of the concentration inhibiting 50% (IC50) and 90% (IC90) of the growth.
Tables 3, 4 and 5 provide the 50% growth inhibitory concentrations (IC50) in micromoles per liter of the compounds of present invention obtained against the A. baumannii strain ATCC17978.

With `CN1C(=O)[C@H](CCCCN)NC(=O)[C@H](CCCN)NCc2cccnc2Sc2c(Cl)ccc(-c3ccc(C(=O)O)cc3)c2CNC(=O)[C@@H]1Cc1c[nH]c2ccccc12` [Example 239, 4-[(11S,14S,17S)-14-(4-Amino-butyl)-11-(3-amino-propyl)-25-chloro-17-(1H-indol-3-ylmethyl)-16-methyl-12,15,18-trioxo-2-thia-4,10,13,16,19-pentaaza-tricyclo[19.4.0.0*3,8*]pentacosa-1 (25),3(8),4,6,21,23-hexaen-22-yl]-benzoic acid] the IC50 was less than 1000 nM.

Same assay, conditions: Acinetobacter baumannii; A. baumannii ATCC17978; Iso-Sensitest medium; OD 600 nm over 16 h; read-out: IC50 ATCC17978

First: CN(C)c1nccc2c1CNC(=O)[C@H](Cc1c[nH]c3ccccc13)N(C)C(=O)[C@H](CCCCN)NC(=O)[C@H](CCCN)NCc1cccnc1S2 [Example 237, (7S,10S,13S)-13-((1H-Indol-3-yl)methyl)-10-(4-aminobutyl)-7-(3-aminopropyl)-17-(dimethylamino)-12-methyl-6,7,9,10,12,13,15,16-octahydrodipyrido [2,3-b:3′,4′-p][1,5,8,11,14]thiatetraazacycloheptadecine-8,11,14(5H)-trione]
Second: CN1C(=O)[C@H](CCCCN)NC(=O)[C@H](CCCN)NCc2cccnc2Sc2ccnc(-c3cccnc3)c2CNC(=O)[C@@H]1Cc1c[nH]c2ccccc12 [Example 238, (7S,10S,13S)-13-((1H-Indol-3-yl)methyl)-10-(4-aminobutyl)-7-(3-aminopropyl)-12-methyl-17-(pyridin-3-yl)-6,7,9,10,12,13,15,16-octahydrodipyrido[2,3-b:3′,4′-p][1,5,8,11,14]thiatetraazacycloheptadecine-8,11,14(5H)-trione]
The IC50 of the first is 7-fold lower: 800 nM for the first, 5600 nM for the second. The first is the more potent here.

`CN1C(=O)[C@H](CCCCN)NC(=O)[C@H](CCCN)NCc2cccnc2Sc2c(Cl)ccc(-c3ccc(OCC(O)CO)cc3)c2CNC(=O)[C@@H]1Cc1c[nH]c2ccccc12` (stereo partly drawn) [Example 240, (11S,14S,17S)-14-(4-Amino-butyl)-11-(3-amino-propyl)-25-chloro-22-[4-(2,3-dihydroxy-propoxy)-phenyl]-17-(1H-indol-3-ylmethyl)-16-methyl-2-thia-4,10,13,16,19-pentaaza-tricyclo[19.4.0.0*3,8*]pentacosa-1(25),3(8),4,6,21,23-hexaene-12,15,18-trione] and `CN1C(=O)[C@H](CCCCN)NC(=O)[C@H](CCCN)NCc2cccnc2Sc2c(Cl)ccc(-c3ccc(OCC(=O)O)cc3)c2CNC(=O)[C@@H]1Cc1c[nH]c2ccccc12` [Example 241, {4-[(11S,14S,17S)-14-(4-Amino-butyl)-11-(3-amino-propyl)-25-chloro-17-(1H-indol-3-ylmethyl)-16-methyl-12,15,18-trioxo-2-thia-4,10,13,16,19-pentaaza-tricyclo[19.4.0.0*3,8*]pentacosa-1(25),3(8),4,6,21,23-hexaen-22-yl]-phenoxy}-acetic acid] cannot be ordered by IC50: less than 100 nM for the first, less than 200 nM for the second.

`CN1C(=O)[C@H](CCCCN)NC(=O)[C@H](CCCN)NCc2cccnc2Sc2c(Cl)ccc(-c3ccc(OC4CCNCC4)cc3)c2CNC(=O)[C@@H]1Cc1c[nH]c2ccccc12` [Example 242, (11S,14S,17S)-14-(4-Amino-butyl)-11-(3-amino-propyl)-25-chloro-17-(1H-indol-3-ylmethyl)-16-methyl-22-[4-(piperidin-4-yloxy)-phenyl]-2-thia-4,10,13,16,19-pentaaza-tricyclo[19.4.0.0*3,8*]pentacosa-1(25),3(8),4,6,21,23-hexaene-12,15,18-trione] and `CN1C(=O)[C@H](CCCCN)NC(=O)[C@H](CCCN)NCc2cccnc2Sc2c(Cl)ccc(-c3ccc(C4CCNCC4)cc3)c2CNC(=O)[C@@H]1Cc1c[nH]c2ccccc12` [Example 250, (11S,14S,17S)-14-(4-Amino-butyl)-1-(3-amino-propyl)-25-chloro-17-(1H-indol-3-ylmethyl)-16-methyl-22-(4-piperidin-4-yl-phenyl)-2-thia-4,10,13,16,19-pentaaza-tricyclo[19.4.0.0*3,8*]pentacosa-1(25),3(8),4,6,21,23-hexaene-12,15,18-trione] cannot be ordered by IC50: less than 200 nM for the first, less than 100 nM for the second.

`CN1C(=O)[C@H](CCCCN)NC(=O)[C@H](CCCN)NCc2cccnc2Sc2c(Cl)ccc(-c3ccc(CN)cc3)c2CNC(=O)[C@@H]1Cc1c[nH]c2ccccc12` [Example 243, (11S,14S,17S)-14-(4-Amino-butyl)-22-(4-aminomethyl-phenyl)-11-(3-amino-propyl)-25-chloro-17-(1H-indol-3-ylmethyl)-16-methyl-2-thia-4,10,13,16,19-pentaaza-tricyclo[19.4.0.0*3,8*]pentacosa-1(25),3(8),4,6,21,23-hexaene-12,15,18-trione] and `CN1C(=O)[C@H](CCCCN)NC(=O)[C@H](CCCN)NCc2cccnc2Sc2c(Cl)ccc(-c3cccc(CCN)c3)c2CNC(=O)[C@@H]1Cc1c[nH]c2ccccc12` [Example 244, (11S,14S,17S)-14-(4-Amino-butyl)-22-[3-(2-amino-ethyl)-phenyl]-11-(3-amino-propyl)-25-chloro-17-(1H-indol-3-ylmethyl)-16-methyl-2-thia-4,10,13,16,19-pentaaza-tricyclo[19.4.0.0*3,8*]pentacosa-1(25),3(8),4,6,21,23-hexaene-12,15,18-trione] cannot be ordered by IC50: less than 100 nM for the first, less than 400 nM for the second.

`CN1C(=O)[C@H](CCCCN)NC(=O)[C@H](CCCN)NCc2cccnc2Sc2c(Cl)ccc(-c3ccc(N4CCNCC4)cc3)c2CNC(=O)[C@@H]1Cc1c[nH]c2ccccc12` [Example 245, (11S,14S,17S)-14-(4-Amino-butyl)-11-(3-amino-propyl)-25-chloro-17-(1H-indol-3-ylmethyl)-16-methyl-22-(4-piperazin-1-yl-phenyl)-2-thia-4,10,13,16,19-pentaaza-tricyclo[19.4.0.0*3,8*]pentacosa-1(25),3(8),4,6,21,2-hexaene-12,15,18-trione] and `CN1C(=O)[C@H](CCCCN)NC(=O)[C@H](CCCN)NCc2cccnc2Sc2c(Cl)ccc(-c3ccc(C(=O)NCCN4CCOCC4)cc3)c2CNC(=O)[C@@H]1Cc1c[nH]c2ccccc12` [Example 249, 4-[(11S,14S,17S)-14-(4-Amino-butyl)-11-(3-amino-propyl)-25-chloro-17-(1H-indol-3-ylmethyl)-16-methyl-12,15,18-trioxo-2-thia-4,10,13,16,19-pentaaza-tricyclo[19.4.0.0*3,8*]pentacosa-1(25),3(8),4,6,21,23-hexaen-22-yl]-N-(2-morpholin-4-yl-ethyl)-benzamide] cannot be ordered by IC50: less than 100 nM for the first, less than 100 nM for the second.

`CN1C(=O)[C@H](CCCCN)NC(=O)[C@H](CCCN)NCc2cccnc2Sc2c(Cl)ccc(-c3ccc(S(=O)(=O)NCCO)cc3)c2CNC(=O)[C@@H]1Cc1c[nH]c2ccccc12` [Example 246, 4-[(11S,14S,17S)-14-(4-Amino-butyl)-11-(3-amino-propyl)-25-chloro-17-(1H-indol-3-ylmethyl)-16-methyl-12,15,18-trioxo-2-thia-4,10,13,16,19-pentaaza-tricyclo[19.4.0.0*3,8*]pentacosa-1(25),3(8),4,6,21,23-hexaen-22-yl]-N-(2-hydroxy-ethyl)-benzenesulfonamide] and `CN1C(=O)[C@H](CCCCN)NC(=O)[C@H](CCCN)NCc2cccnc2Sc2c(Cl)ccc(-c3ccc(C(=O)NCCO)cc3)c2CNC(=O)[C@@H]1Cc1c[nH]c2ccccc12` [Example 247, 4-[(11S,14S,17S)-14-(4-Amino-butyl)-11-(3-amino-propyl)-25-chloro-17-(1H-indol-3-ylmethyl)-16-methyl-12,15,18-trioxo-2-thia-4,10,13,16,19-pentaaza-tricyclo[19.4.0.0*3,8*]pentacosa-1(25),3(8),4,6,21,23-hexaen-22-yl]-N-(2-hydroxy-ethyl)-benzamide] cannot be ordered by IC50: less than 100 nM for the first, less than 100 nM for the second.

First: CN(C)CCNC(=O)c1ccc(-c2ccc(Cl)c3c2CNC(=O)[C@H](Cc2c[nH]c4ccccc24)N(C)C(=O)[C@H](CCCCN)NC(=O)[C@H](CCCN)NCc2cccnc2S3)cc1 [Example 248, 4-[(11S,14S,17S)-14-(4-Amino-butyl)-11-(3-amino-propyl)-25-chloro-17-(1H-indol-3-ylmethyl)-16-methyl-12,15,18-trioxo-2-thia-4,10,13,16,19-pentaaza-tricyclo[19.4.0.0*3,8*]pentacosa-1(25),3(8),4,6,21,23-hexaen-22-yl]-N-(2-dimethylamino-ethyl)-benzamide]
Second: CN1C(=O)[C@H](CCCCN)NC(=O)[C@H](CCCO)NCc2cccnc2Sc2c(Cl)cc(Cl)cc2CNC(=O)[C@@H]1Cc1c[nH]c2ccccc12 [Example 252, (11S,14S,17S)-14-(4-Amino-butyl)-23,25-dichloro-11-(3-hydroxy-propyl)-17-(1H-indol-3-ylmethyl)-16-methyl-2-thia-4,10,13,16,19-pentaaza-tricyclo[19.4.0.0*3,8*]pentacosa-1(25),3(8),4,6,21,23-hexaene-12,15,18-trione]
The IC50 of the first is lower: less than 100 nM for the first, 500 nM for the second. The first is the more potent here.

In the case of `CNCCCC[C@@H]1NC(=O)[C@H](CCCN)NCc2cccnc2Sc2c(Cl)cc(Cl)cc2CNC(=O)[C@H](Cc2c[nH]c3ccccc23)N(C)C1=O` [Example 251, (11S,14S,17S)-11-(3-Amino-propyl)-23,25-dichloro-17-(1H-indol-3-ylmethyl)-16-methyl-14-(4-methylamino-butyl)-2-thia-4,10,13,16,19-pentaaza-tricyclo[19.4.0.0*3,8*]pentacosa-1(25),3(8),4,6,21,23-hexaene-12,15,18-trione], the IC50 is reported as less than 100 nM.
